Laboratory results from PubChem BioAssay (NCI).
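Cultured in 96-well plates, cells were exposed to test compound for 48 hours across five concentrations. TGI: total growth inhibition.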

What was measured:
Assay in all cases: NCI tumour cell line growth inhibition, 48 h
SNB-78 CNS = system: SNB-78 CNS
SN12K1 renal = system: SN12K1 renal
KM20L2 colon = system: KM20L2 colon
DLD-1 colon = system: DLD-1 colon
P388/ADR leukemia = system: P388/ADR leukemia
P388 leukemia = system: P388 leukemia
HOP-18 NSCLC = system: HOP-18 NSCLC
XF 498 CNS = system: XF 498 CNS
DMS 114 small cell lung = system: DMS 114 small cell lung
M19-MEL melanoma = system: M19-MEL melanoma
LXFL 529 NSCLC = system: LXFL 529 NSCLC

Measured: TGI

CCCSCC(P(=O)(O)O)P(=O)(O)O
not listed: LXFL 529 NSCLC
> 100 µM: all other assays above

CC1=NS(=O)(=O)c2ccccc2N1
not listed: SN12K1 renal | P388/ADR leukemia | P388 leukemia | XF 498 CNS
> 100 µM: all other assays above
